Reference: US9682995B2, “Amino-substituted isothiazoles” (BAYER PHARMA AKTIENGESELLSCHAFT, priority 2013, dated 2017)
pIC50: −log10 of the molar value.

Experiments:
[1] = biological target: human Bub1 (Homo sapiens (Human), UniProt O43683); test: Bub1 kinase assay (TR-FRET); format: biochemical; details: 10 μM ATP; read-out: Bub1 avg (IC50 [mol/l])
In short: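 His6-tagged human Bub1 catalytic domain (aa 704-1085, insect-cell expressed, ~200 ng/ml) preincubated with compound 15 min, then reacted 60 min at 22 °C with 10 μM ATP and 1 μM biotinylated peptide (final) in pH 7.5 Tris buffer. Phosphopeptide detected by TR-FRET 665/620 ratio, normalised to no-inhibitor and no-enzyme controls.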

[2] = tested on: spindle assembly checkpoint; test: SAC-Formation - Nocodazole-Induced Assay; format: cell-based; details: Homo sapiens; HeLa cells, nocodazole 0.1 μg/ml, 24 h, phosphorylated histone H3 on serine 10
In short: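 HeLa cells were given nocodazole at 0.1 μg/ml final together with compounds (0.005–20 μM, 0.5% DMSO) for 24 h at 37° C. Mitotic cells were counted by phospho-histone H3 Ser10 immunostaining, with cell number from HOECHST 33342, by high-content imaging. The loss of mitotic cells was fitted with a four-parameter Hill equation.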

Chain of human Bub1 (O43683 704-1085): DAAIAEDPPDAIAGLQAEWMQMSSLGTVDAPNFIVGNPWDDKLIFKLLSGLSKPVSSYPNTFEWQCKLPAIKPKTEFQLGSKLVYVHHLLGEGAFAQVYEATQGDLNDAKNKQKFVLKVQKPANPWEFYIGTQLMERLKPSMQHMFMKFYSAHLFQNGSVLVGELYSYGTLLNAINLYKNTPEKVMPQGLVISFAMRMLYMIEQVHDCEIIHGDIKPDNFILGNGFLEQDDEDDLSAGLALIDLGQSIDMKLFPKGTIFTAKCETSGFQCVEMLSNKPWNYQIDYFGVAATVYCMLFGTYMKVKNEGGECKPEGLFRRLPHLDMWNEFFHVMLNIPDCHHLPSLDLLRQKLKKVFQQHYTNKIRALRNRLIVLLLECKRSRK

SMILES | pIC50 [1] | pIC50 [2]
CNC(=O)c1ccc(Nc2snc(C)c2C(=O)Nc2ccc(F)c(F)c2)nn1 [Example 80, 6-({4-[(3,4-Difluorophenyl)carbamoyl]-3-methyl-1,2-thiazol-5-yl}amino)-N-methylpyridazine-3-carboxamide] | < 4.70 | 5.72
Cc1nsc(Nc2cnc(C(F)(F)F)cn2)c1C(=O)Nc1ccc(F)c(F)c1 [Example 81, N-(3,4-Difluorophenyl)-3-methyl-5-{[5-(trifluoromethyl)pyrazin-2-yl]amino}-1,2-thiazole-4-carboxamide] | < 4.70 | 8.01
Cc1nsc(Nc2cncc(C(F)(F)F)n2)c1C(=O)Nc1ccc(F)c(F)c1 [Example 82, N-(3,4-Difluorophenyl)-3-methyl-5-{[6-(trifluoromethyl)pyrazin-2-yl]amino}-1,2-thiazole-4-carboxamide] | 4.82 | 7.68
Cc1nsc(Nc2ccc(C(F)(F)F)nn2)c1C(=O)Nc1ccc(F)c(F)c1 [Example 83, N-(3,4-Difluorophenyl)-3-methyl-5-{[6-(trifluoromethyl)pyridazin-3-yl]amino}-1,2-thiazole-4-carboxamide] | < 4.70 | 8.15
COc1ccc(NC(=O)c2c(C)nsc2Nc2cncc(C(F)(F)F)n2)cn1 [Example 84, N-(6-methoxypyridin-3-yl)-3-methyl-5-{[6-(trifluoromethyl)pyrazin-2-yl]amino}-1,2-thiazole-4-carboxamide] | < 4.70 | 7.24
COc1ccc(NC(=O)c2c(C)nsc2Nc2cnc(C(F)(F)F)cn2)cn1 [Example 85, N-(6-methoxypyridin-3-yl)-3-methyl-5-{[5-(trifluoromethyl)pyrazin-2-yl]amino}-1,2-thiazole-4-carboxamide] | < 4.70 | 8.21
CCc1ccccc1NC(=O)c1c(C)nsc1Nc1cnc2cc(Cl)ccc2n1 [Example 86, 5-[(6-Chloroquinoxalin-2-yl)amino]-N-(2-ethylphenyl)-3-methyl-1,2-thiazole-4-carboxamide] | < 4.70 | 6.28
COc1ccc2nc(Nc3snc(C)c3C(=O)Nc3ccc(OC)nc3)sc2c1 [Example 87, 5-[(6-Methoxy-1,3-benzothiazol-2-yl)amino]-N-(6-methoxypyridin-3-yl)-3-methyl-1,2-thiazole-4-carboxamide] | 4.96 | 6.23
COc1ccc(NC(=O)c2c(C)nsc2Nc2nc3ccc(F)cc3s2)cn1 [Example 88, 5-[(6-Fluoro-1,3-benzothiazol-2-yl)amino]-N-(6-methoxypyridin-3-yl)-3-methyl-1,2-thiazole-4-carboxamide] | 4.77 | 6.09
COc1ccc(NC(=O)c2c(C)nsc2Nc2nc3cccnc3s2)cn1 [Example 89, N-(6-Methoxypyridin-3-yl)-3-methyl-5-([1,3]thiazolo[5,4-b]pyridin-2-ylamino)-1,2-thiazole-4-carboxamide] | 6.68 | 5.85
COc1ccc(NC(=O)c2c(C)nsc2Nc2nc3ccc(C)cc3s2)cn1 [Example 90, N-(6-Methoxypyridin-3-yl)-3-methyl-5-[(6-methyl-1,3-benzothiazol-2-yl)amino]-1,2-thiazole-4-carboxamide] | < 4.70 | 5.38
CCc1ccccc1NC(=O)c1c(C)nsc1Nc1nc(C(=O)OC)co1 [Example 91, Methyl 2-({4-[(2-ethylphenyl)carbamoyl]-3-methyl-1,2-thiazol-5-yl}amino)-1,3-oxazole-4-carboxylate] | < 4.70 | 5.38
CCOC(=O)c1cnc(Nc2snc(C)c2C(=O)Nc2ccccc2CC)s1 [Example 92, Ethyl 2-({4-[(2-ethylphenyl)-carbamoyl]-3-methyl-1,2-thiazol-5-yl}amino)-1,3-thiazole-5-carboxylate] | < 4.70 | 5.92
COc1ccc(NC(=O)c2c(C)nsc2Nc2ncc(C(=O)N3CCOCC3)s2)cc1F [Example 93, N-(3-Fluoro-4-methoxyphenyl)-3-methyl-5-{[5-(morpholin-4-ylcarbonyl)-1,3-thiazol-2-yl]amino}-1,2-thiazole-4-carboxamide] | < 4.70 | 5.85
COc1ccc(NC(=O)c2c(C)nsc2Nc2cnc3ccccc3n2)cn1 [Example 94, N-(6-Methoxypyridin-3-yl)-3-methyl-5-(quinoxalin-2-ylamino)-1,2-thiazole-4-carboxamide] | < 4.70 | 7.09
CCOC(=O)c1sc(Nc2snc(C)c2C(=O)Nc2ccc(Cl)c(F)c2)nc1C [Example 95, Ethyl 2-({4-[(4-chloro-3-fluoro-phenyl)carbamoyl]-3-methyl-1,2-thiazol-5-yl}amino)-4-methyl-1,3-thiazole-5-carboxylate] | < 4.70 | 6.59
